From patent US20220009987A9, “HUMAN RESISTIN COMPOSITIONS AND METHODS OF TREATING TLR4-MEDIATED DISEASE AND INFECTION” (THE REGENTS OF THE UNIVERSITY OF CALIFORNIA, priority 2017, published 2022)

Columns and labels:
human PBMCs = experiment: Human PBMC functional assay, LPS-induced cytokine secretion (ELISA); format: cell-based; conditions: human PBMC, pre-treatment then LPS 100 ng/mL
Protocol: (§1) Human PBMCs. Human buffy coat was purchased from Zen-bio. Buffy coat was overlaid on top of Histopaque-1077 and spun at 700g at 25° C. with no brake and PBMCs were recovered from the interphase. PBMCs were plated in 96-well plates and stimulated with mammalian-derived human resistin (1 μg/mL, LifeSpan Biosciences) or hRetn N-peptide (1 μg/mL). After 24 hours, ultrapure LPS (100 ng/mL, Invivogen) was added and supernatants recovered for ELISA at 24 hours. Where indicated, cells were incubated for 4 hours with STAT3 (5, 15-DPP, 50 μM) or TBK1 (BX-795, 1 μM) inhibitors prior to hRetn treatment. For the hRetn competitive binding assay, 1×10^6 cells were incubated with recombinant hRetn (0.5 μg), washed in PBS then incubated with 0.5 μg LPS-biotin (incubations were 30 minutes on ice). Cells were washed in FACS buffer, treated with Fc block, and stained with BV605-conjugated streptavidin and α-human primary antibodies: CD14 (clone M5E2), CD11 b (clone M1/70) and MD2/TLR4 (clone HTA125) purchased from Affymetrix.
Cytokine Quantification. Sandwich ELISAs were performed using capture and biotinylated antibodies for human resistin (Peprotech), IL-10 and TNFα (BD Biosciences) according to manufacturer's instructions. Detection was performed with streptavidin-peroxidase (Jackson ImmunoResearch) and TMB peroxidase substrate (BD Biosciences), followed by addition of 2N H2SO4. Optical density (OD) was captured at 450 nm. Samples were compared to serial-fold dilution of recombinant protein. For Luminex, inflammatory cytokine kits (Affymetrix) were run according to manufacturer's instructions and quantified on Luminex MagPix (Luminex Corp.). For cytokine bead array, cytokine kits from BD Bioscience were run according to manufacturer's instructions on BD LSRII and analyzed using FCAP Array Software.

human TLR4 = human TLR4 (Homo sapiens, UniProt O00206); experiment: Pull-down assay with His-tagged human TLR4; format: binding; conditions: pre-incubation of His-TLR4 with 500 ng/ml N-peptide, anti-Flag blot
Chain of human TLR4 (O00206 24-839): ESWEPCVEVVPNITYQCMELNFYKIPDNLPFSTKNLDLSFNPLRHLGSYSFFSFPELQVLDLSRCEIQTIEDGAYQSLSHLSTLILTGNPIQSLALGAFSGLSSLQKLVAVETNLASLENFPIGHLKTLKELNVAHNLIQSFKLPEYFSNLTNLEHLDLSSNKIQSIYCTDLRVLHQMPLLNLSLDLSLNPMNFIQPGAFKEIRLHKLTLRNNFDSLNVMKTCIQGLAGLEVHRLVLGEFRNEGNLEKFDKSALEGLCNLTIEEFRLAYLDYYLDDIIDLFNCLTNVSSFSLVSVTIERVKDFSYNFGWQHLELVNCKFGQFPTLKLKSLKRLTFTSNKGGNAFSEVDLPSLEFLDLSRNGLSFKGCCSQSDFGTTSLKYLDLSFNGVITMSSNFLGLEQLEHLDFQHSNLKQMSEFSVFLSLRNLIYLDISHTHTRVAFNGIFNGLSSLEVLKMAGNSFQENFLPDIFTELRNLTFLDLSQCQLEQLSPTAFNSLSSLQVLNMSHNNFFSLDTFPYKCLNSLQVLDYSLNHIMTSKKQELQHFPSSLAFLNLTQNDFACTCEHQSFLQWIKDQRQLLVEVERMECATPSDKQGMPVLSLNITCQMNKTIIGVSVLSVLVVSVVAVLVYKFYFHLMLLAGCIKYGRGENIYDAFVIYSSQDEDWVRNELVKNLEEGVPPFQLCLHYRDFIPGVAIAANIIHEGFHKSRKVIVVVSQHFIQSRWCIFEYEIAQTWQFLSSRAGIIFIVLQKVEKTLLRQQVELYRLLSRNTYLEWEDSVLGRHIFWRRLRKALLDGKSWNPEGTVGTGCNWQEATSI
Protocol: Pull-down Assay. 1 μg/ml protein His-tagged MBP, human TLR4 and human CAP1 were added to nickel-nitrilotriacetic acid-agarose beads (Invitrogen) in binding buffer (50 mM NaH2PO4, 500 mM NaCl, 10 mM Imidazole, pH 8.0) and mixed for 1 hour at 4° C., followed by washing and 1 h incubation at 4° C. with hRetn (E. coli-derived, Peprotech or 293T cell-derived, LifeSpan Biosciences) in binding buffer. Beads were washed in wash buffer (50 mM NaH2PO4, 500 mM NaCl, 20 mM Imidazole, pH 8.0), and complex protein eluted with elution buffer (50 mM NaH2PO4, 500 mM NaCl, 250 mM Imidazole, pH 6.0). His-MBP, His-TLR4 and His-CAP1 were detected by anti-His antibody (Abcam), and hRetn was detected by anti-hRetn antibody (donated by Mitchell Lazar) by Western Blot. For the N-peptide binding experiment, 1 μg/ml His-tagged human TLR4 with 500 ng/ml N-peptide or 10% TFE control was added to the beads in binding buffer and mixed for 30 min at 4° C., followed by co-immunoprecipitation using 1 μg/ml Flag-hRetn (LifeSpan Biosciences), anti-His or anti-Flag (Sigma).

CD14+CD11b+ monocytes = experiment: Competitive resistin/LPS binding assay on human PBMCs (flow cytometry); format: cell-based; conditions: for LPS binding to CD14+CD11b+ monocytes: pre-incubation before LPS-biotin, on ice
Protocol: as §1

Question: With O=C(NCCCNc1nc(Nc2cccc(NC(=O)N3CCCC3)c2)ncc1I)c1cccs1 [TBK1 inhibitor, BX-795, reference compound] as the compound, how does the “IL-10 expression after LPS” value (human PBMCs) read?
Answer: The value was “increased IL-10 expression”.

Question: And the “LPS-induced TNFα secretion” value (human PBMCs)?
Answer: Its value is “significantly reduced LPS-induced TNFα”.

Question: For “hRetn N-peptide: synthesized hRetn N-terminal peptide (1-23 a.a.), SEQ ID NO: 2 (MEEAINERIQEVAGSLIFRAISS) (listed as Homo sapiens)”, which “competitive inhibition of Flag-tagged full-length hRetn binding to hTLR4” value (human TLR4) is on record?
Answer: The value was “sufficient to abrogate binding of full-length hRetn”.

Question: What about the “LPS-promoted surface MD2/TLR4 complex formation” value (CD14+CD11b+ monocytes; human PBMC, flow cytometry) of the same compound?
Answer: The value was “abrogated”.

Question: What about the “LPS binding to CD14+CD11b+ monocytes” value (CD14+CD11b+ monocytes) of the same compound?
Answer: Its value is “inhibited LPS binding”.

Question: What about the “LPS binding to CD14+CD11b+ monocytes” value (CD14+CD11b+ monocytes; listed as N-pep) of the same compound?
Answer: Its value is “abrogated the binding of LPS in human PMBCs similar to full-length hRetn”.

Question: And the “LPS-induced TNFα secretion” value (human PBMCs)?
Answer: The value was “significantly more efficient at suppressing LPS-induced TNFα than full-length hRetn”.
